Data taken from patent US9751837B2, “Kinase inhibitors” (RESPIVERT LIMITED, priority 2014, dated 2017).
Where two headings read alike, the source gives them in different places.

Columns and labels:
Lck = Lck (Homo sapiens (Human), UniProt P06239); assay: KINOMEscan dissociation constant, Lck; assay type: binding
Source text: (§1) These assays may be conducted by DiscoverX (formerly Ambit; San Diego, Calif.).

p38 MAPKα = p38 MAPKα (Homo sapiens (Human), UniProt Q16539); assay: KINOMEscan dissociation constant, p38 MAPKα; assay type: binding
Source text: as §1

Syk = Syk (Homo sapiens (Human), UniProt P43405); assay: KINOMEscan dissociation constant, Syk; assay type: binding
Source text: as §1

GSK 3α = GSK 3α (Homo sapiens (Human), UniProt P49840); assay: GSK 3α enzyme inhibition (Method 2), Z-LYTE FRET; assay type: biochemical; conditions: read-out: IC50 Values for Enzyme Inhibition GSK3α
Summary of the method: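 Z-LYTE format: the protease cleaves only non-phosphorylated peptide, and the donor/acceptor (coumarin/fluorescein) ratio reports phosphorylation after a 1 hr kinase reaction with peptide (8 μM stock) and ATP (40 μM stock).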

hERG = hERG (Homo sapiens (Human), UniProt Q12809); assay: hERG inhibition, IonWorks patch clamp electrophysiology; assay type: cell-based; conditions: human, hERG, read-out: % Inhibition at Top Concentration
Method: (§2) Compounds of the invention were tested for inhibition of the human ether a go-go (hERG) channel using IonWorks™ patch clamp electrophysiology at Essen Bioscience (Welwyn Garden City, England).

[1] = biological target: human ether a go-go (hERG) channel (Homo sapiens (Human), UniProt Q12809); assay: as above; assay type: cell-based; conditions: IonWorks patch clamp
Method: as §2

B-Raf = B-Raf (Homo sapiens (Human), UniProt P15056); assay: KINOMEscan binding of B-Raf to its standard ligand
Source text: as §1

B-Raf (V600E) = B-Raf (V600E) (Homo sapiens (Human), UniProt P15056, V600E); assay: KINOMEscan binding of B-Raf (V600E) to its standard ligand
Source text: as §1

[2] = Pharmacokinetics and total colon distribution after single oral administration; assay type: in vivo, male C57BL/6 mice; conditions: male, C57BL/6, mouse, mice, oral 5 mg/kg
Method: Studies were conducted by Sai Life Sciences (Hinjewadi, Pune, India) to investigate the systemic pharmacokinetics and total colon tissue distribution of compounds of the invention. In particular, pharmacokinetic studies were carried out in male C57BL/6 mice following a single oral administration of the compound.

[3] = system: Escherichia coli, WP2 uvrA; assay: Bacterial reverse mutation screen, Escherichia coli
[4] = system: Salmonella typhimurium, strains TA1535, TA1537, TA98 and TA100; assay: Bacterial reverse mutation screen, Salmonella typhimurium
non-mutant kinases = assay: KinomeScan Selectivity Scores; assay type: binding
Source text: as §1

Jurkat cells = assay: Cell cytotoxicity assay (r); assay type: cell-based, human; conditions: 24 hours, 5 μg/mL
Summary of the method: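 Viability read by flow cytometry as the fraction of propidium iodide-negative cells (7.5 μg/mL PI, 15 min), relative to 1.0% DMSO control. Beforehand, 1×10^5 Jurkat cells in RPMI/10% FBS were treated 24 h at 37° C., 5% CO2 with test compound at final 20, 5 or 1 μg/mL.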

[5] = plasma, measured cpd = dosed cpd (1 as Na salt, 44 as NH4+ salt), read-out: Mean plasma concentration
[6] = total colon tissue, measured cpd = dosed cpd (1, 19, 47 as Na salt, 44 as NH4+ salt), read-out: total colon level
[7] = total colon, measured cpd = dosed cpd (1, 19, 47 as Na salt, 44 as NH4+ salt), read-out: total colon level
[8] = blood, measured cpd = dosed cpd (19, 47 as Na salt), read-out: Mean blood concentration

human ether a go-go (hERG) channel, sequence (Q12809 whole entry): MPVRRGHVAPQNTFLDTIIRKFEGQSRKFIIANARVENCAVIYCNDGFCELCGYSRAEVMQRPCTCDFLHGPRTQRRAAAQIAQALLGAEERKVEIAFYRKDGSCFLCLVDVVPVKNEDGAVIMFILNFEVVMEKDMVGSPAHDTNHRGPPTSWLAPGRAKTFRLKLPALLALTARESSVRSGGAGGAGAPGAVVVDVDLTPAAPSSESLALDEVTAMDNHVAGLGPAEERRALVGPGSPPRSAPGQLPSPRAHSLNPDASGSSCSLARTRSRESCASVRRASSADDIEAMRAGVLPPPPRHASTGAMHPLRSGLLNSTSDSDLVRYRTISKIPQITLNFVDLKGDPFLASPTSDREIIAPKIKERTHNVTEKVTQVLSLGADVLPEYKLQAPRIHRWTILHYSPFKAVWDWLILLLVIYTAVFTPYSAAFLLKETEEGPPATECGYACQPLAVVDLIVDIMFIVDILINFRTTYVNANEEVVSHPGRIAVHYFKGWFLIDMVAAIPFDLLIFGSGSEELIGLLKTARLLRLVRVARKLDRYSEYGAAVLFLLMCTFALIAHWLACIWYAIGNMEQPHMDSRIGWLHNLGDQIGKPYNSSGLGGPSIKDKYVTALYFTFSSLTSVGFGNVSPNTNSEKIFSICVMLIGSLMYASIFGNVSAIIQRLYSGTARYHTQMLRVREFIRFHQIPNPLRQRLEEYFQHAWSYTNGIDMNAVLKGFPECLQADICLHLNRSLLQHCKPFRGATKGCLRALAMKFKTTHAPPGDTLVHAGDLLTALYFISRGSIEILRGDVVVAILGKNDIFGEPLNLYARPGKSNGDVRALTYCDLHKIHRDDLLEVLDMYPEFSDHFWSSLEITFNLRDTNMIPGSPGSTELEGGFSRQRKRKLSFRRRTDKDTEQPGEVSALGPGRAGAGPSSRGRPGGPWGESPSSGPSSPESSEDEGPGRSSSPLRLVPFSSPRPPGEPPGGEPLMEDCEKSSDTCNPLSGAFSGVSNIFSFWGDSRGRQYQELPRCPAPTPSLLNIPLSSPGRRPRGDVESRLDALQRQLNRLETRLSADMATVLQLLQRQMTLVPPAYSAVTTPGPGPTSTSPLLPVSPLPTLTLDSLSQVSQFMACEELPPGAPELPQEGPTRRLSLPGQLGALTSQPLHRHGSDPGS
hERG, sequence (Q12809 whole entry): as above
B-Raf (V600E), sequence (P15056 whole entry V600E): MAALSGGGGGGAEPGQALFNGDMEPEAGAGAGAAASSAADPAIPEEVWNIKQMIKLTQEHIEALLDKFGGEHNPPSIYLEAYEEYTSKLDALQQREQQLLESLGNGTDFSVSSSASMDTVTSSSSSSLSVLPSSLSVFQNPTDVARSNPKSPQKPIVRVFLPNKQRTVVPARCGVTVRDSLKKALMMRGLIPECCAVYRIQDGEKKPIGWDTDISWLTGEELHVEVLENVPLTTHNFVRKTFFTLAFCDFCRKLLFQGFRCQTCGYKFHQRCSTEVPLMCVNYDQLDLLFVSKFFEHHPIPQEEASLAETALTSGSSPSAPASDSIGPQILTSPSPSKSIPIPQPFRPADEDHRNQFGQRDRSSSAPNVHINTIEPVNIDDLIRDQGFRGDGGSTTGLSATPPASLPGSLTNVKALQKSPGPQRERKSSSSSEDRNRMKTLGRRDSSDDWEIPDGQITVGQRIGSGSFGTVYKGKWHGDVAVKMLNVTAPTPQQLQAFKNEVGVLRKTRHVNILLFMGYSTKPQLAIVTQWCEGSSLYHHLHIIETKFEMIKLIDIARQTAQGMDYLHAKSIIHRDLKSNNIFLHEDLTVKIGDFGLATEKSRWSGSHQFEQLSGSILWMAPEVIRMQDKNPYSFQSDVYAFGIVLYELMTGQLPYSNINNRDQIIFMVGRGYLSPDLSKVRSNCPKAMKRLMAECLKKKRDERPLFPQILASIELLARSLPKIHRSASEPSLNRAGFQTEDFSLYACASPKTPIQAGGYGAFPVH
B-Raf, sequence (P15056 whole entry): as the sequence (P15056 whole entry V600E) above, with E600V counted along it
Lck, sequence (P06239 whole entry): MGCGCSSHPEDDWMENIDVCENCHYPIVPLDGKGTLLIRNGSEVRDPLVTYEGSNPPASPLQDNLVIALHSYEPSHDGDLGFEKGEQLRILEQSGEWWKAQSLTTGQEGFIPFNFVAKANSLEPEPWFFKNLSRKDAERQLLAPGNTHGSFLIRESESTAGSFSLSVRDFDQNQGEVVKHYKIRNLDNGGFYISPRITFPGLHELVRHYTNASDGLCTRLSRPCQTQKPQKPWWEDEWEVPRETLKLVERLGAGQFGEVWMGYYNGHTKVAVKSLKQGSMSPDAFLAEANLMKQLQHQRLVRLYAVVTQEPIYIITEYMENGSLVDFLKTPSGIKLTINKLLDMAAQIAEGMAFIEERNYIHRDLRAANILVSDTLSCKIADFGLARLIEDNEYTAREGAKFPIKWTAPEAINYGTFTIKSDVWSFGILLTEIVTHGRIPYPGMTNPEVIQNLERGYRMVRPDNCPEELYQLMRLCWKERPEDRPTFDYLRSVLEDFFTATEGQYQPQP
p38 MAPKα, sequence (Q16539 whole entry): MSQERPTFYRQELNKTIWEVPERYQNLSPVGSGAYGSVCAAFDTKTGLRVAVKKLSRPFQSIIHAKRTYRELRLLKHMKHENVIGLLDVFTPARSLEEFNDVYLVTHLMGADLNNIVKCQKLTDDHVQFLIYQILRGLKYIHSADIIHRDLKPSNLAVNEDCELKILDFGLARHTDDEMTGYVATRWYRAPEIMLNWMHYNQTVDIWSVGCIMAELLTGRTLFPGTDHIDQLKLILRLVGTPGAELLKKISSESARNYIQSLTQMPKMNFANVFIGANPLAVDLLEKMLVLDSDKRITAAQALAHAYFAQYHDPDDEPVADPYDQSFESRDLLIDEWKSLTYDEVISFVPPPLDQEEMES
GSK 3α, sequence (P49840 whole entry): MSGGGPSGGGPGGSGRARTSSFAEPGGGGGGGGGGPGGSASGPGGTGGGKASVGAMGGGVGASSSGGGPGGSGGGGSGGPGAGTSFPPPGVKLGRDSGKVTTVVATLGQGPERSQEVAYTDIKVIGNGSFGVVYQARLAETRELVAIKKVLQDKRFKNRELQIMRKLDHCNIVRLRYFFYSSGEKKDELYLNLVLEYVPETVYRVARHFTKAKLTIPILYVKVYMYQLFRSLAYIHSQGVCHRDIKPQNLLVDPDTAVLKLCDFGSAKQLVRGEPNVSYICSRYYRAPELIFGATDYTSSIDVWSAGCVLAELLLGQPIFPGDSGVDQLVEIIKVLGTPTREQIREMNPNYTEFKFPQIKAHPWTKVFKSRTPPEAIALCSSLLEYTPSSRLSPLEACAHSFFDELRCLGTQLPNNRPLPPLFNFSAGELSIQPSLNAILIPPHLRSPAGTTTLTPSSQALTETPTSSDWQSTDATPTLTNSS

Row | Compound | Kd (Lck) [µM] | Kd (p38 MAPKα) [µM] | Kd (Syk) [µM] | IC50 [1] [µM] | effect on the binding of B-Raf to its standard ligand (B-Raf) | effect on the binding of B-Raf (V600E) to its standard ligand (B-Raf (V600E)) | concentration at 2 h [2, 6] [ng/g] | concentration at 4 h [2, 6] [ng/g] | concentration at 6 h [2, 6] [ng/g] | concentration at 8 h [2, 6] [ng/g] | concentration at 12 h [2, 6] [ng/g] | concentration at 0.5 h [2, 7] [ng/g] | concentration at 1 h [2, 7] [ng/g] | concentration at 24 h [2, 7] [ng/g] | inhibition at 11 µM (hERG) [%] | also measured
1 | COc1cc(Nc2cc(Oc3ccc(NC(=O)Nc4cc(C(C)(C)C)cc(NS(C)(=O)=O)c4OC)c4ccccc34)ccn2)ccc1C(=O)NCCN1CCOCC1 [Example 2, 4-((4-((4-(3-(5-(tert-Butyl)-2-methoxy-3-(methylsulfonamido)phenyl)ureido)naphthalen-1-yl)oxy)pyridin-2-yl)amino)-2-methoxy-N-(2-morpholinoethyl)benzamide] | 0.0058 | 0.023 | 0.018 | > 3.3 | – | – | – | – | – | – | – | – | – | – | – | IC50 (GSK 3α): 2.3 µM; inhibition at 3 µM (hERG; 3 μM): -2%
2 | COc1cc(Nc2cc(Oc3ccc(NC(=O)Nc4cc(C(C)(C)C)cc(NS(C)(=O)=O)c4OC)c4ccccc34)ccn2)ccc1P(C)(=O)O [Example 44, (4-((4-((4-(3-(5-(tert-Butyl)-2-methoxy-3-(methylsulfonamido)phenyl)ureido)naphthalen-1-yl)oxy)pyridin-2-yl)amino)-2-methoxyphenyl)(methyl)phosphinic acid] | 0.0053 | 0.0019 | 0.0066 | > 11 | did not have any significant effect | did not have any significant effect | 2330 | 1750 | 450 | 915 | 180 | 0 | 0 | 0 | 18 | concentration at 0.5 h [2, 5]: 0 µg/mL; concentration at 1 h [2, 5]: 0 µg/mL; concentration at 2 h [2, 5]: 0 µg/mL; concentration at 4 h [2, 5]: 0 µg/mL; concentration at 6 h [2, 5]: 0 µg/mL; concentration at 8 h [2, 5]: 0 µg/mL; concentration at 12 h [2, 5]: 0 µg/mL; concentration at 24 h [2, 5]: 0 µg/mL; dose with reduction in the mean colony count (toxicity to the bacteria) ([3]; absence of S-9 mix): 5000 μg/plate; mutagenic effects (revertant numbers) ([3]; presence or absence of S-9 mix, plate incorporation): absence of any mutagenic effects; dose with reduction in the mean colony count (toxicity to the bacteria) ([4]; TA98, presence of S-9 mix): 5000 μg/plate; dose with reduction in the mean colony count (toxicity to the bacteria) ([4]; TA100, presence of S-9 mix): 5000 μg/plate; mutagenic effects (revertant numbers) ([4]; TA1535, TA1537, TA98, TA100, presence or absence of S-9 mix, plate incorporation): absence of any mutagenic effects; dose with reduction in the mean colony count (toxicity to the bacteria) ([4]; TA1535, presence of S-9 mix): 5000 μg/plate; dose with reduction in the mean colony count (toxicity to the bacteria) ([4]; TA1537, presence of S-9 mix): 5000 μg/plate; limit of solubility in the mutation test ([4]; all strains, presence and absence of S-9 mix, plate incorporation): 5000 μg/plate
3 | COc1cc(Nc2cc(Oc3ccc(NC(=O)Nc4cc(C(C)(C)C)cc(NS(C)(=O)=O)c4OC)c4ccccc34)ccn2)cc(OC)c1C(=O)NCCOCCOCCOP(=O)(O)O [Example 47, 2-(2-(2-(4-((4-((4-(3-(5-(tert-butyl)-2-methoxy-3-(methylsulfonamido)phenyl)ureido)-naphthalen-1-yl)oxy)pyridin-2-yl)amino)-2,6-dimethoxybenzamido)ethoxy)ethoxy)ethyl dihydrogen phosphate] | – | – | – | > 11 | did not have any significant effect | did not have any significant effect | 0 | 0 | 0 | 0 | 0 | 0 | 0 | 0 | 19 | KinomeScan Selectivity Score S(10) (non-mutant kinases; 50 nM, (non-mutant kinases with % Ctrl <10)/(non-mutant kinases tested)): 0.042; KinomeScan Selectivity Score S(1) (non-mutant kinases; 500 nM, (non-mutant kinases with % Ctrl <1)/(non-mutant kinases tested)): 0.074; % Viability at 5 μg/mL (Jurkat cells): 96.0%; concentration at 0.5 h [2, 8]: 0 µg/mL; concentration at 1 h [2, 8]: 0 µg/mL; concentration at 2 h [2, 8]: 0 µg/mL; concentration at 4 h [2, 8]: 0 µg/mL; concentration at 6 h [2, 8]: 0 µg/mL; concentration at 8 h [2, 8]: 0 µg/mL; concentration at 12 h [2, 8]: 0 µg/mL; concentration at 24 h [2, 8]: 0 µg/mL
